# Test results taken from paper PMC7801405, “Structure, substrate specificity, and catalytic mechanism of human D-2-HGDH and insights into pathogenicity of disease-associated mutations” (Cell Discovery, 2021).
# What was measured:
# [1] = target: T1, D-2-hydroxyglutarate dehydrogenase (D-2-HGDH) (Homo sapiens, UniProt Q8N465); assay: crystal structure ([…] Å), SPR, enzyme kinetics; format: binding
# T1 construct: gene D2HGDH
# T1 sequence (Q8N465 51-521): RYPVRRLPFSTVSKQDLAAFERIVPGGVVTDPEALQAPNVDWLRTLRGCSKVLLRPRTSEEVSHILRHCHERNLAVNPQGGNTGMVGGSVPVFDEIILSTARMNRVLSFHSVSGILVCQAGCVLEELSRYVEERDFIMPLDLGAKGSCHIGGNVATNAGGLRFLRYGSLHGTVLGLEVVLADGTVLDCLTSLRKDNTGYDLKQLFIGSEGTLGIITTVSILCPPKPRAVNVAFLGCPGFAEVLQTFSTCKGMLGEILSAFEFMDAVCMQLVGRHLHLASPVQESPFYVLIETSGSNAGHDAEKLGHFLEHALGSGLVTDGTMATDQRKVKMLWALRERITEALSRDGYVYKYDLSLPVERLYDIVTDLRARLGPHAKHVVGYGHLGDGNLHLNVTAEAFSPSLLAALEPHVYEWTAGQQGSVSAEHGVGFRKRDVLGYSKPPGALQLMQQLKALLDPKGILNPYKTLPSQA
# [2] = target: T1, D-2-hydroxyglutarate dehydrogenase (D-2-HGDH); assay: crystal structure ([…] Å), SPR, enzyme kinetics; format: binding; remark: listed apart in the source
# [3] = target: T1, D-2-hydroxyglutarate dehydrogenase (D-2-HGDH); assay: crystal structure ([…] Å), SPR, enzyme kinetics; format: binding; remark: listed apart in the source
# [4] = target: T1, D-2-hydroxyglutarate dehydrogenase (D-2-HGDH); assay: crystal structure ([…] Å); SPR with DTT-treated protein (reduced FAD); no measurable binding to the untreated protein
smiles,measurement,setting,value
"O=C(O)C[C@@H](O)C(=O)O [D-MAL, D-malate]",Kd,[1],799 µM
"C[C@@H](O)C(=O)O [D-LAC, D-lactate]",Kd,[2],1620 µM
"O=C(O)CC[C@@H](O)C(=O)O [D-2-HG, D-2-hydroxyglutarate]",Kd,[3],149 µM
"O=C(O)CCC(=O)C(=O)O [2-OG, 2-oxoglutarate]",Kd,[4],7000 µM
